Assay results reported in patent US20220041691A1, “METHODS FOR DIAGNOSING OR TREATING POST-TRAUMATIC STRESS DISORDER, AND COMPOSITIONS THEREFOR” (Centre for Addiction and Mental Health, priority 2018, published 2022).

Tests used:
[1] = system: fear-conditioned mice; assay: Cued fear conditioning, systemic (i.p.) peptide delivery; assay type: in vivo, mouse; details: p<0.05
Protocol: Next, testing was performed to determine whether TAT-GRpep can block the emergence of PTSD-like fear-related behaviours when administrated systemically. Animals underwent five rounds of CS-US pairings followed by 5 days of extinction training before the expression of fear in response to the learned cue was assessed (FIG. 4A). Mice were injected with either TAT-GRpep or TAT intraperitoneally (3 nmol/g, i.p.) one hour before the test.
Furthermore, testing was performed to determine whether disrupting the GR-FKBP51 complex reduced consolidation of cued fear memory. Thus, TAT or TAT-GRpep was administered two hours after the end of fear conditioning training (FIG. 4C), before five consecutive daily extinction sessions of cue exposure without shock. […] This may therefore indicate a potential approach to both preventing and treating PTSD-like behaviour in the aftermath of trauma, for example.
Animals were first given a five-minute habituation to the apparatus (Habitest, Colbourne Instruments). Then, animals were exposed to 30 seconds of cue exposure (an in-house white light), which co-terminated with one second of foot-shock (0.5 mA). The cue exposure and foot-shock were repeated five times, intermitted by 5-minute inter-trial intervals. Following the conditioning, animals were subjected to 2-5 days of extinction before the assessment of their cued fear memory, which consisted of 15 rounds of 30-second cue exposure, with 30-second inter-trial intervals (adapted from Andero et al.).^48
The expression of fear (in a different context from training) was assessed 24 hours after the last extinction training. The assessment consisted of a three-minute period of habituation (absence of CS) and a sequent three-minute trial of conditioned cues. The duration of freezing behaviors was recorded by a blinded experimenter. Peptide treatment was either administered 2 hours after the conditioning or 30 minutes before the behavioral assessment.

[2] = target: T1, GR-FKBP51 complex (Mus musculus, UniProt Q64378); assay: Co-immunoprecipitation of GR-FKBP51 complex in brain and lymphocyte lysate of fear-conditioned mice injected with peptide; assay type: in vivo; details: brain lysate of fear-conditioned mice injected with TAT or TAT-GRpep; p<0.05, n=3
T1 construct: from tissue; host or cells: C57Bl/6 mouse brain (acute slices; whole-brain lysate) and blood lymphocytes
T1 sequence (Q64378 1-456): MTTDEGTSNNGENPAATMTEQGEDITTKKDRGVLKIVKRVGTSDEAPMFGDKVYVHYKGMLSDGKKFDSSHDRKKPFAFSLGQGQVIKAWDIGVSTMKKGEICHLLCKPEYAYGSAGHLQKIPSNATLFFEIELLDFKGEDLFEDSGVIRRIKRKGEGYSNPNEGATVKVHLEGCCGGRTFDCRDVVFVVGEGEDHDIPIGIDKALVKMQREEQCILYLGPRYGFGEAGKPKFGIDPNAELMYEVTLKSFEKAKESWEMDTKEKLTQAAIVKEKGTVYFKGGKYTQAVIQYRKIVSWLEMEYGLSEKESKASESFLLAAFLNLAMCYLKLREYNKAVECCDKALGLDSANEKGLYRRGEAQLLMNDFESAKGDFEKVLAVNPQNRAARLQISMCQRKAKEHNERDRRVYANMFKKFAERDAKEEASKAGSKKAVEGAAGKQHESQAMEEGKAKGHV
Protocol: Furthermore, testing was performed to determine whether disrupting the GR-FKBP51 complex reduced consolidation of cued fear memory. Thus, TAT or TAT-GRpep was administered two hours after the end of fear conditioning training (FIG. 4C), before five consecutive daily extinction sessions of cue exposure without shock.
(§1) Co-immunoprecipitation and Western blot analyses were performed as previously described.^24, 25, 26 For co-immunoprecipitation, 500˜1000 μg solubilized protein was extracted from whole mouse brain and incubated with primary antibody or control IgG (2˜4 μg) for 4 hrs at 4° C., followed by the addition of 25 μl protein A/G plus agarose (Santa Cruz Biotechnology) for 12 hrs. Pellets were washed, boiled for 5 min in SDS sample buffer and subjected to SDS-PAGE. 50˜100 μg of total protein extract was used as control in each experiment. After transfer of proteins into nitrocellulose, membranes were Western blotted with the primary antibodies. The intensity of protein level was quantified by densitometry (software: ImageLab, Bio-Rad).

[3] = system: GR phosphorylation at S211; assay: Western blot of GR phosphorylation at S211 in brain lysate of fear-conditioned mice; assay type: in vivo, mouse; details: brain lysate of fear-conditioned mice injected with TAT or TAT-GRpep; p<0.05, n=3
Source text: To further investigate these findings, surface plasmon resonance (SPR) was used to estimate association and dissociation rates between GR and FKBP51. […] Thus, GR S211 phosphorylation seems to reduce GR affinity for FKBP51. Conversely, disruption of the GR-FKBP51 complex with TAT-GRpep could increase GR S211 phosphorylation, which is what was observed when comparing fear-conditioned mice treated with TAT-GRpep vs. TAT control or no treatment (FIG. 5 I-J).
as §1, with “Bio-Rad). […]” for “Bio-Rad).”

[4] = system: GR and FKBP52 colocalization in primary neurons; assay: Immunocytochemistry of GR and FKBP52 in primary mouse neurons; assay type: cell-based; details: primary neurons 8 DIV, 10 μM, 45 min
Protocol: Cortical tissues from embryonic day (E14) mouse brains were dissected out, incubated with 0.25% trypsin for 15 min at 37° C., and dissociated by mechanical trituration. Neurons were then plated at a desired density onto glass coverslips previously coated with 0.1 mg/ml poly-d-lysine, and grown in Neurobasal medium with 1× Glutamax, 1×B27, 100 U/ml penicillin and 100 μg/ml streptomycin in an incubator (37° C., 5% CO2). Either 10 μM of TAT-GRpep, 10 μM TAT-control peptide or saline were added in culture plates for 45 min in advance at 8 days in vitro (8 DIV).
Cultured neurons were fixed in 4% PFA/4% sucrose, permeabilized with 0.1M PBS containing 0.1% Triton X-100 for 10 min, and blocked for 1 hour with 1% bovine serum albumin in PBS at room temperature. They were incubated with primary antibodies overnight at 4° C. and secondary antibodies for 1 hour at room temperature. The following primary antibodies were used: anti-GR (1:200; Thermo), anti-FKBP51 (1:200; Abcam) and anti-FKBP52 (1:200; Abcam). […] DAPI was used to stain cell nuclei.

## TAT: control peptide: cell-membrane transduction domain of the human immunodeficiency virus-type 1 TAT protein (GRKKRRQRRRPQ; Amino Acid Sequence of the Cell-Membrane Transduction Domain of HIV-Type 1 Transactivator of Transcription (TAT) Protein) [reference compound]
[1]; 3 nmol/g i.p. one hour before the test, after 5 days of extinction training, three-minute cue trial
  duration of freezing with the CS: 64.2 ± 10.7 s
[1]; peptide administered two hours after end of fear conditioning, tested 24 hours after last of five daily extinction sessions
  duration of freezing with the CS (consolidation of cued fear memory): 71.0 ± 3.6 s
[2]
  GR-FKBP51 complex level in brain (co-immunoprecipitation): not
[3]
  GR phosphorylation at S211: not
[4]
  nuclear GR-FKBP52 colocalization: almost negligible amount of GR-FKBP52 complex
